Measurements taken from the NIST ThermoML archive (doi:10.1021/je1002237).

Assay: xn = mol fraction of the nth substance listed
Conditions: 101 kPa, Liquid

CC1COC(=O)O1 (configuration not stated) [4-methyl-1,3-dioxolan-2-one] + CCOS(=O)(=O)[O-].CCn1cc[n+](C)c1
mass density [kg/m3]
Conditions | 278.15 K | 283.15 K | 288.15 K | 293.15 K | 298.15 K | 303.15 K | 308.15 K
x1 = 0.0266 | 1250.69 | 1247.12 | 1243.68 | 1240.27 | 1236.86 | 1233.45 | 1230.06
x1 = 0.0513 | 1250.41 | 1246.82 | 1243.39 | 1239.97 | 1236.53 | 1233.11 | 1229.69
x1 = 0.0755 | 1250.13 | 1246.55 | 1243.1 | 1239.64 | 1236.19 | 1232.74 | 1229.3
x1 = 0.1231 | 1249.6 | 1246.04 | 1242.54 | 1239.04 | 1235.55 | 1232.06 | 1228.58
x1 = 0.1825 | 1248.89 | 1245.35 | 1241.79 | 1238.2 | 1234.68 | 1231.13 | 1227.6
x1 = 0.2548 | 1248.05 | 1244.41 | 1240.76 | 1237.11 | 1233.49 | 1229.88 | 1226.27
x1 = 0.3178 | 1247.17 | 1243.45 | 1239.73 | 1236.01 | 1232.32 | 1228.64 | 1224.96
x1 = 0.3778 | 1246.4 | 1242.61 | 1238.81 | 1235.04 | 1231.27 | 1227.52 | 1223.78
x1 = 0.4859 | 1244.38 | 1240.42 | 1236.47 | 1232.54 | 1228.62 | 1224.71 | 1220.83
x1 = 0.5725 | 1242.6 | 1238.5 | 1234.4 | 1230.34 | 1226.28 | 1222.25 | 1218.22
x1 = 0.6971 | 1239.08 | 1234.73 | 1230.4 | 1226.09 | 1221.79 | 1217.52 | 1213.25
x1 = 0.7812 | 1235.9 | 1231.35 | 1226.82 | 1222.31 | 1217.81 | 1213.33 | 1208.86
x1 = 0.8427 | 1232.95 | 1228.23 | 1223.51 | 1218.83 | 1214.15 | 1209.49 | 1204.84
x1 = 0.8893 | 1230.36 | 1225.48 | 1220.62 | 1215.78 | 1210.95 | 1206.14 | 1201.34
x1 = 0.9259 | 1227.81 | 1222.79 | 1217.79 | 1212.81 | 1207.84 | 1202.89 | 1197.94
x1 = 0.9554 | 1225.35 | 1220.2 | 1215.07 | 1209.96 | 1204.85 | 1199.76 | 1194.68
x1 = 0.9797 | 1223.22 | 1217.97 | 1212.73 | 1207.51 | 1202.3 | 1197.09 | 1191.9
x1 = 1 | 1220.93 | 1215.57 | 1210.21 | 1204.88 | 1199.55 | 1194.23 | 1188.91

CC(C)=O [acetone] + CCOS(=O)(=O)[O-].CCn1cc[n+](C)c1
x1 = 1
Conditions | mass density [kg/m3]
278.15 K | 807.75
283.15 K | 802.15
288.15 K | 796.52
293.15 K | 790.86
298.15 K | 785.13
303.15 K | 779.38
308.15 K | 773.58

CC#N [acetonitrile] + CCOS(=O)(=O)[O-].CCn1cc[n+](C)c1
x1 = 1
Conditions | mass density [kg/m3]
278.15 K | 798.01
283.15 K | 792.69
288.15 K | 787.33
293.15 K | 781.97
298.15 K | 776.56
303.15 K | 771.14
308.15 K | 765.68

ClCCl [dichloromethane] + CCOS(=O)(=O)[O-].CCn1cc[n+](C)c1
mass density [kg/m3]
Conditions | 278.15 K | 283.15 K | 288.15 K | 293.15 K | 298.15 K | 303.15 K | 308.15 K
x1 = 0.0375 | 1252.39 | 1248.82 | 1245.38 | 1241.96 | 1238.55 | 1235.13 | 1231.72
x1 = 0.0731 | 1254.22 | 1250.64 | 1247.19 | 1243.72 | 1240.27 | 1236.81 | 1233.36
x1 = 0.1117 | 1255.78 | 1252.22 | 1248.72 | 1245.22 | 1241.73 | 1238.24 | 1234.76
x1 = 0.1664 | 1258.85 | 1255.31 | 1251.75 | 1248.14 | 1244.63 | 1241.08 | 1237.55
x1 = 0.2488 | 1263.74 | 1260.06 | 1256.38 | 1252.7 | 1249.03 | 1245.37 | 1241.71
x1 = 0.3308 | 1268.9 | 1265.09 | 1261.28 | 1257.48 | 1253.69 | 1249.9 | 1246.13
x1 = 0.4023 | 1274.69 | 1270.74 | 1266.78 | 1262.82 | 1258.9 | 1254.97 | 1251.05
x1 = 0.4624 | 1279.33 | 1275.26 | 1271.18 | 1267.11 | 1263.05 | 1259 | 1254.96
x1 = 0.5776 | 1290.69 | 1286.28 | 1281.87 | 1277.47 | 1273.07 | 1268.69 | 1264.32
x1 = 0.6593 | 1299.95 | 1295.23 | 1290.51 | 1285.8 | 1281.09 | 1276.39 | 1271.69
x1 = 0.7684 | 1315.91 | 1310.52 | 1305.14 | 1299.77 | 1294.38 | 1289 | 1283.61
x1 = 0.8377 | 1327.28 | 1321.28 | 1315.26 | 1309.25 | 1303.21 | 1297.16 | 1291.11
x1 = 0.8856 | 1335.58 | 1328.97 | 1322.35 | 1315.72 | 1309.05 | 1302.36 | 1295.65
x1 = 0.9207 | 1341.3 | 1334.16 | 1326.99 | 1319.81 | 1312.58 | 1305.32 | 1298.03
x1 = 0.9475 | 1345.71 | 1338.05 | 1330.35 | 1322.64 | 1314.87 | 1307.06 | 1299.21
x1 = 0.9687 | 1349.06 | 1340.91 | 1332.71 | 1324.48 | 1316.18 | 1307.85 | 1299.46
x1 = 0.9858 | 1351.32 | 1342.72 | 1334.07 | 1325.38 | 1316.61 | 1307.8 | 1298.92
x1 = 1 | 1352.84 | 1343.8 | 1334.71 | 1325.58 | 1316.34 | 1307.06 | 1297.69

CCO [ethanol] + CCOS(=O)(=O)[O-].CCn1cc[n+](C)c1
x1 = 1
Conditions | mass density [kg/m3]
278.15 K | 802.12
283.15 K | 797.89
288.15 K | 793.63
293.15 K | 789.37
298.15 K | 785.08
303.15 K | 780.77
308.15 K | 776.42

CO [methanol] + CCOS(=O)(=O)[O-].CCn1cc[n+](C)c1
x1 = 1
Conditions | mass density [kg/m3]
278.15 K | 805.53
283.15 K | 800.85
288.15 K | 796.16
293.15 K | 791.49
298.15 K | 786.77
303.15 K | 782.05
308.15 K | 777.3

O [water] + CCOS(=O)(=O)[O-].CCn1cc[n+](C)c1
x1 = 1
Conditions | mass density [kg/m3]
278.15 K | 999.96
283.15 K | 999.69
